Measurements reported in the NIST ThermoML archive (doi:10.1016/j.jct.2008.10.007).

Assays:
[1] = excess molar enthalpy (molar enthalpy of mixing); xn = mol fraction of the nth substance listed; settings: 298.15 K, 101 kPa, Liquid, Calvet calorimetry
[2] = xn = mol fraction of the nth substance listed; settings: 298.15 K, 101 kPa, Liquid, Vibrating tube method

CCCOC(=O)CCC [propyl butanoate] + ClCCCCCCl
Settings	excess molar enthalpy [kcal/mol]	mass density [kg/m3]
[1], x1 = 0.0559	-0.00311	–
[1], x1 = 0.1285	-0.0086	–
[1], x1 = 0.2091	-0.0167	–
[1], x1 = 0.2908	-0.0258	–
[1], x1 = 0.3699	-0.0351	–
[1], x1 = 0.4417	-0.0449	–
[1], x1 = 0.4998	-0.0504	–
[1], x1 = 0.553	-0.0526	–
[1], x1 = 0.5757	-0.0523	–
[1], x1 = 0.6397	-0.0497	–
[1], x1 = 0.71	-0.0445	–
[1], x1 = 0.7828	-0.0368	–
[1], x1 = 0.8561	-0.0265	–
[1], x1 = 0.9304	-0.0146	–
[2], x1 = 0.0527	–	1081.35
[2], x1 = 0.1057	–	1067.82
[2], x1 = 0.1578	–	1054.69
[2], x1 = 0.2095	–	1041.82
[2], x1 = 0.2663	–	1027.99
[2], x1 = 0.3782	–	1001.4
[2], x1 = 0.4944	–	974.66
[2], x1 = 0.6144	–	947.96
[2], x1 = 0.7409	–	920.76
[2], x1 = 0.804	–	907.58
[2], x1 = 0.8678	–	894.43
[2], x1 = 0.9363	–	880.61
[2], x1 = 1	–	867.9

CCCOC=O [propyl methanoate] + ClCCCCCCl
Settings	mass density [kg/m3]
[2], x1 = 1	899.81

CCCOC(=O)CC [propyl propanoate] + ClCCCl
Settings	excess molar enthalpy [kcal/mol]	mass density [kg/m3]
[1], x1 = 0.0428	-0.0129	–
[1], x1 = 0.1001	-0.0299	–
[1], x1 = 0.1671	-0.0526	–
[1], x1 = 0.2376	-0.0758	–
[1], x1 = 0.3085	-0.0975	–
[1], x1 = 0.3736	-0.115	–
[1], x1 = 0.4312	-0.125	–
[1], x1 = 0.4782	-0.132	–
[1], x1 = 0.5177	-0.133	–
[1], x1 = 0.5861	-0.128	–
[1], x1 = 0.671	-0.117	–
[1], x1 = 0.7874	-0.0853	–
[1], x1 = 0.9084	-0.0437	–
[2], x1 = 0.0347	–	1224.28
[2], x1 = 0.0727	–	1201.87
[2], x1 = 0.1118	–	1180.16
[2], x1 = 0.1538	–	1158.1
[2], x1 = 0.1965	–	1136.61
[2], x1 = 0.2437	–	1114.31
[2], x1 = 0.2932	–	1092.38
[2], x1 = 0.3455	–	1070.49
[2], x1 = 0.3994	–	1049.24
[2], x1 = 0.4599	–	1026.87
[2], x1 = 0.5188	–	1006.4
[2], x1 = 0.5854	–	984.69
[2], x1 = 0.6557	–	963.29
[2], x1 = 0.7316	–	941.63
[2], x1 = 0.8153	–	919.43
[2], x1 = 0.8998	–	898.5
[2], x1 = 1	–	875.61

CCCOC(=O)CCC [propyl butanoate] + ClCCCCl
Settings	excess molar enthalpy [kcal/mol]	mass density [kg/m3]
[1], x1 = 0.0386	-0.00478	–
[1], x1 = 0.0938	-0.0127	–
[1], x1 = 0.159	-0.0229	–
[1], x1 = 0.2273	-0.0375	–
[1], x1 = 0.2973	-0.0507	–
[1], x1 = 0.3649	-0.0626	–
[1], x1 = 0.4253	-0.0712	–
[1], x1 = 0.5121	-0.081	–
[1], x1 = 0.5732	-0.0798	–
[1], x1 = 0.6582	-0.0753	–
[1], x1 = 0.748	-0.0652	–
[1], x1 = 0.8421	-0.0464	–
[1], x1 = 0.9299	-0.0234	–
[2], x1 = 0.0366	–	1161.49
[2], x1 = 0.0766	–	1143.1
[2], x1 = 0.1186	–	1124.61
[2], x1 = 0.1603	–	1107.03
[2], x1 = 0.2067	–	1088.41
[2], x1 = 0.2552	–	1069.83
[2], x1 = 0.3066	–	1051.21
[2], x1 = 0.3595	–	1032.94
[2], x1 = 0.4152	–	1014.72
[2], x1 = 0.5357	–	978.32
[2], x1 = 0.5999	–	960.48
[2], x1 = 0.6691	–	942.33
[2], x1 = 0.7439	–	923.8
[2], x1 = 0.8228	–	905.44
[2], x1 = 0.9064	–	887.12
[2], x1 = 1	–	867.9

ClCCCCCCl [1,5-dichloropentane] + CCCOC(C)=O
Settings	excess molar enthalpy [kcal/mol]	mass density [kg/m3]
[1], x2 = 0.0656	-0.00382	–
[1], x2 = 0.1426	-0.00478	–
[1], x2 = 0.2338	-0.0134	–
[1], x2 = 0.3247	-0.0239	–
[1], x2 = 0.4088	-0.0337	–
[1], x2 = 0.4844	-0.0392	–
[1], x2 = 0.5426	-0.0409	–
[1], x2 = 0.5428	-0.0411	–
[1], x2 = 0.6183	-0.0409	–
[1], x2 = 0.6974	-0.0366	–
[1], x2 = 0.7844	-0.0282	–
[1], x2 = 0.8682	-0.0184	–
[1], x2 = 0.9448	-0.00813	–
[2], x2 = 0.0592	–	1083.72
[2], x2 = 0.126	–	1070.79
[2], x2 = 0.1854	–	1059.08
[2], x2 = 0.2502	–	1046.15
[2], x2 = 0.3122	–	1033.6
[2], x2 = 0.3736	–	1021.02
[2], x2 = 0.495	–	995.63
[2], x2 = 0.5537	–	983.11
[2], x2 = 0.6672	–	958.42
[2], x2 = 0.7269	–	945.17
[2], x2 = 0.7802	–	933.16
[2], x2 = 0.8365	–	920.34
[2], x2 = 0.889	–	908.23
[2], x2 = 0.9471	–	894.67

CCCOC(C)=O [propyl ethanoate] + ClCCCCl
Settings	mass density [kg/m3]
[2], x1 = 1	882.08

ClCCCCCCCl [1,6-dichlorohexane] + CCCOC(C)=O
Settings	excess molar enthalpy [kcal/mol]	mass density [kg/m3]
[1], x2 = 0.0861	0.00598	–
[1], x2 = 0.1716	0.00478	–
[1], x2 = 0.2676	-0.00311	–
[1], x2 = 0.3149	-0.00765	–
[1], x2 = 0.3896	-0.0146	–
[1], x2 = 0.4563	-0.0196	–
[1], x2 = 0.5169	-0.0239	–
[1], x2 = 0.5684	-0.0253	–
[1], x2 = 0.5761	-0.0246	–
[1], x2 = 0.6268	-0.0241	–
[1], x2 = 0.6841	-0.022	–
[1], x2 = 0.7455	-0.0194	–
[1], x2 = 0.8101	-0.0153	–
[1], x2 = 0.8793	-0.0105	–
[1], x2 = 0.9463	-0.00574	–
[2], x2 = 0.0708	–	1053.44
[2], x2 = 0.1405	–	1042.95
[2], x2 = 0.208	–	1032.5
[2], x2 = 0.2725	–	1022.22
[2], x2 = 0.3392	–	1011.28
[2], x2 = 0.4656	–	989.61
[2], x2 = 0.584	–	968.14
[2], x2 = 0.6947	–	946.95
[2], x2 = 0.8017	–	925.34
[2], x2 = 0.8514	–	914.87
[2], x2 = 0.902	–	903.96
[2], x2 = 0.9502	–	893.34

ClCCCCCCl [1,5-dichloropentane] + CCCOC=O
Settings	excess molar enthalpy [kcal/mol]	mass density [kg/m3]
[1], x2 = 0.0772	0.0148	–
[1], x2 = 0.1733	0.0261	–
[1], x2 = 0.2797	0.0335	–
[1], x2 = 0.3611	0.0349	–
[1], x2 = 0.4265	0.0339	–
[1], x2 = 0.48	0.0323	–
[1], x2 = 0.5257	0.0301	–
[1], x2 = 0.5865	0.0263	–
[1], x2 = 0.6476	0.0215	–
[1], x2 = 0.7088	0.0163	–
[1], x2 = 0.7665	0.0115	–
[1], x2 = 0.8266	0.00717	–
[1], x2 = 0.8827	0.00406	–
[1], x2 = 0.9526	0.0012	–
[2], x2 = 0.1431	–	1073.06
[2], x2 = 0.215	–	1061.43
[2], x2 = 0.2831	–	1050.01
[2], x2 = 0.3476	–	1038.81
[2], x2 = 0.4101	–	1027.62
[2], x2 = 0.4756	–	1015.48
[2], x2 = 0.5351	–	1004.04
[2], x2 = 0.65	–	980.9
[2], x2 = 0.7551	–	958.34
[2], x2 = 0.8569	–	935.09
[2], x2 = 0.9046	–	923.69
[2], x2 = 0.953	–	911.75

CCCOC(=O)CC [propyl propanoate] + ClCCCCCCl
Settings	mass density [kg/m3]
[2], x1 = 1	875.61

ClCCCCCl [1,4-dichlorobutane] + CCCOC(=O)CC
Settings	excess molar enthalpy [kcal/mol]	mass density [kg/m3]
[1], x2 = 0.0573	-0.00621	–
[1], x2 = 0.133	-0.0151	–
[1], x2 = 0.2168	-0.0308	–
[1], x2 = 0.3006	-0.0461	–
[1], x2 = 0.381	-0.0598	–
[1], x2 = 0.4539	-0.071	–
[1], x2 = 0.5117	-0.0743	–
[1], x2 = 0.5559	-0.0743	–
[1], x2 = 0.6419	-0.071	–
[1], x2 = 0.7366	-0.0621	–
[1], x2 = 0.8338	-0.0447	–
[1], x2 = 0.9261	-0.0227	–
[2], x2 = 0.0527	–	1118.03
[2], x2 = 0.1038	–	1102.83
[2], x2 = 0.1547	–	1087.98
[2], x2 = 0.2085	–	1072.56
[2], x2 = 0.2627	–	1057.37
[2], x2 = 0.3186	–	1041.98
[2], x2 = 0.3736	–	1027.16
[2], x2 = 0.49	–	996.65
[2], x2 = 0.5485	–	981.77
[2], x2 = 0.612	–	965.97
[2], x2 = 0.6735	–	950.93
[2], x2 = 0.7351	–	936.2
[2], x2 = 0.8004	–	920.88
[2], x2 = 0.866	–	905.76
[2], x2 = 0.9333	–	890.53

CCCOC=O [propyl methanoate] + ClCCCCCl
Settings	excess molar enthalpy [kcal/mol]	mass density [kg/m3]
[1], x1 = 0.0692	0.00932	–
[1], x1 = 0.1586	0.0155	–
[1], x1 = 0.2416	0.0191	–
[1], x1 = 0.3365	0.0184	–
[1], x1 = 0.4234	0.0148	–
[1], x1 = 0.5005	0.01	–
[1], x1 = 0.5667	0.00406	–
[1], x1 = 0.6288	-0.00382	–
[1], x1 = 0.6884	-0.00837	–
[1], x1 = 0.7528	-0.00908	–
[1], x1 = 0.817	-0.00908	–
[1], x1 = 0.8815	-0.00669	–
[1], x1 = 0.9414	-0.00311	–
[2], x1 = 0.0699	–	1119.28
[2], x1 = 0.1344	–	1105.73
[2], x1 = 0.2012	–	1091.45
[2], x1 = 0.3873	–	1050.4
[2], x1 = 0.4476	–	1036.71
[2], x1 = 0.5676	–	1008.76
[2], x1 = 0.6231	–	995.55
[2], x1 = 0.6814	–	981.44
[2], x1 = 0.7384	–	967.39
[2], x1 = 0.7933	–	953.67
[2], x1 = 0.8452	–	940.47
[2], x1 = 0.8982	–	926.78
[2], x1 = 0.9521	–	912.65
[2], x1 = 1	–	899.81
